Experimental findings from ChEMBL document CHEMBL1137128, “Quantitative structure-activity relationship analysis of a series of 2,3-diaryl benzopyran analogues as novel selective cyclooxygenase-2 inhibitors” (Bioorg Med Chem Lett, 2004) are described below.

One may read the IC50 as the concentration that gives 50% inhibition.

The target of the test is T1, Prostaglandin G/H synthase 2 (Mus musculus, UniProt Q05769).
T1 sequence (Q05769 whole entry): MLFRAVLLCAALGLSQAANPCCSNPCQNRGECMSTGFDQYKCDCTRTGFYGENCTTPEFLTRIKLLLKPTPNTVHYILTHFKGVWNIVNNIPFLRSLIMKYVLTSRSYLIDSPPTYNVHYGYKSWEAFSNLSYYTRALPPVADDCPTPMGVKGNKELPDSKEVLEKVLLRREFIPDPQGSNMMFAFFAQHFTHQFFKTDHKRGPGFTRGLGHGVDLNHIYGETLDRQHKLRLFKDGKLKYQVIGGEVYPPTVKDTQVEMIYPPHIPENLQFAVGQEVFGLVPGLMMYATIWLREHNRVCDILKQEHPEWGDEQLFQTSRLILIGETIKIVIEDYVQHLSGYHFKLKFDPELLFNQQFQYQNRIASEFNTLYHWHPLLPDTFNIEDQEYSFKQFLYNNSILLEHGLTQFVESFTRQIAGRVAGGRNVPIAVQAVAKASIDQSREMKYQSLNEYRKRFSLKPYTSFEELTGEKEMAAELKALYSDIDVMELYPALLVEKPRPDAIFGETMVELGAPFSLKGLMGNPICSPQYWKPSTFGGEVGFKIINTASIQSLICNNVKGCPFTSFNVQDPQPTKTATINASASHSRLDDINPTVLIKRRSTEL
Put plainly: In vitro inhibitory activity against Prostaglandin G/H synthase 2 from mouse peritoneal macrophages.

`CS(=O)(=O)c1ccc(-c2oc3ccccc3c(=O)c2-c2cc3ccccc3s2)cc1` showed an IC50 of 0.331 µM.
